Solubility data for 1 compound are collected here from patent US20240050588A1, “PHARMACEUTICAL COMPOSITION CONTAINING PROPOFOL, A CYCLODEXTRIN OR A CYCLODEXTRIN DERIVATIVE AND A PHARMACEUTICALLY ACCEPTABLE SALT” (CENTRE HOSPITALIER UNIVERSITAIRE DE LILLE, priority 2020, published 2024).

This data set is described as follows: Propofol phase-solubility tests with cyclodextrins according to the method of Higuchi and Connors. Conditions: 25 °C, water, thermodynamic from solid. The procedure: A large excess of propofol is added to 1.4 ml of the appropriate cyclodextrin solution. The resulting mixtures are vortexed for about 5 min and stirred at a temperature 25±0.5° C. for 24 hours. About 1 ml of the solution is transferred using a Pasteur pipette into an Eppendorf tube. Afterwards, these tubes are centrifuged for 30 min at 13,200 rpm. Afterwards, 40 μl of the aqueous phase are sampled and then diluted to 1/10 in ethanol and to 40/1,000 in a solution of acetonitrile and an ammonia buffer pH 9.2. Afterwards, these samples are filtered through a 0.2 μm filter and then put in vial before analysis by high-performance liquid chromatography with UV detection. The injection volume was 10 microliters (cf. injection loop). […] The stability constants Kc are estimated from the slope of the line of the phase-solubility diagram according to the following equation: Kc=slope/S0 (1−slope).
The stability constant Kc is calculated from the slope of the line of the phase-solubility diagram according to the following equation: Kc=slope/S0(1−slope).
The used 2-hydropropyl-β-cyclodextrin is still that one selected before (HPB-LB). […]
The results of the solubility tests have been analysed again more particularly with the complexation efficiency (CE), calculated using the equation: […]

Molecules are shown by their SMILES. Values joined by “and” are separate entries in the source; they are usually repeats but may differ in a detail not shown here. Equal entries are not always repeated.

`CC(C)c1cccc(C(C)C)c1O` [propofol, 2,6-bis(propan-2-yl)phenol]: the solubility at 24 h is 1070 µM and 190 µg/mL.
